The record followed here is patent US11708344B2, “Flavone derivatives for the treatment and prophylaxis of hepatitis B virus disease” (Hoffmann-La Roche Inc., priority 2018, dated 2023).

Data set [1] has as its system HBeAg (surrogate marker for cccDNA) in HepDES19 cells. Put plainly: Engineered HepDES19 primary screen assay (HBeAg ELISA). Format: cell-based, HBV. From the text:
The assay was employed to screen for novel cccDNA inhibitors. HepDES19 is a cccDNA-producing cell line. In this cell line, HBeAg in the cell culture supernatant as surrogate marker, as HBeAg production depends on cccDNA level and activity. HepDES19 is an engineered cell line which contains a 1.1 unit length HBV genome, and pgRNA transcription from the transgene is controlled by Tetracycline (Tet). In the absence of Tet, pgRNA transcription will be induced, but HBV e antigen (HBeAg) could not be produced from this pgRNA due to very short leader sequence before the HBeAg start codon and the start codon is disrupted. Only after cccDNA is formed, the missing leader sequence and start codon mutation would be restored from the 3′-terminal redundancy of pgRNA, and then HBeAg could be synthesized. Therefore, HBeAg could be used as a surrogate marker for cccDNA (Zhou, T. et al., Antiviral Res. (2006), 72(2), 116-124; Guo, H. et al., J. Virol. (2007), 81(22), 12472-12484).
HepDES19 cells were seeded at 2×10^6 cells per T150 flask and cultured with the culture medium (Dulbecco's Modified Eagle Medium: Nutrient Mixture F-12 [DMEM-F12, Gibco Cat. 11320-82], 10% Fetal Bovine Serum [FBS, Clontech Cat. 631101], 0.1 mM Non-Essential Amino Acids Solution [NEAA, Gibco Cat. 11140-050], 50 μg/mL Penicillin-Streptomycin [PS, Invitrogen Cat. 15140-163], 500 μg/mL Geneticin [G418, Invitrogen Cat. 10131-027]) containing 3 μg/mL Tet (Sigma, Cat. 87128) for 5 days. Cells were then seeded at 4×10^6 cells per T150 in the same culture medium as described above in the absence of Tet for 8 days. Cells were then harvested and frozen at density of 2×10^6 cells per mL. For compound testing, the frozen cells were thawed and seeded into 96-well plates at a density of 6×10^4 cells per well. At 24 hours after seeding, half log serial dilutions of compounds made with Dimethyl sulfoxide (DMSO, Sigma, Cat. D2650) were further diluted with the same culture medium as described above before they were added to the cells to reach desired final compound concentrations and 1% DMSO concentration. Plates were then incubated at 37° C. for another 5 days before measurement of HBeAg level and cell viability. […] HBeAg level were measured with enzyme-linked immunosorbent assay (ELISA) kit (Shanghai Kehua Diagnostic Medical Products Co., Ltd). Cell viability was assessed using Cell Counting Kit-8 (DonJindo, Cat. CK04-20). IC50 values were derived from the dose-response curve using 4 parameter logistic curve fit method.
The compounds of the present invention were tested for their capacity to inhibit extracellular HBeAg level as described herein.

Data set [2] is described as follows: Human microsome stability assay. It counts as in vitro ADME. As to conditions: human liver microsomes, 1 μM test compound, 0.5 mg/mL microsomal protein, 37° C., pH 7.4, 0-30 minutes. The procedure: The human microsomal stability assay is used for early assessment of metabolic stability of a test compound in human liver microsomes.
Human liver microsomes (Cat. NO.: 452117, Corning, USA; Cat. NO.: H2610, Xenotech, USA) were preincubated with test compound for 10 minutes at 37° C. in 100 mM potassium phosphate buffer, pH 7.4. The reactions were initiated by adding NADPH regenerating system. The final incubation mixtures contained 1 μM test compound, 0.5 mg/mL liver microsomal protein, 1 mM MgCl2, 1 mM NADP, 1 unit/mL isocitric dehydrogenase and 6 mM isocitric acid in 100 mM potassium phosphate buffer, pH 7.4. After incubation times of 0, 3, 6, 9, 15 and 30 minutes at 37° C., 300 μL of cold ACN (including internal standard) was added to 100 μL incubation mixture to terminate the reaction. Following precipitation and centrifugation, the amount of compound remaining in the samples was determined by LC-MS/MS. Controls of no NADPH regenerating system at zero and 30 minutes were also prepared and analyzed.

[3] abbreviates: Hepatitis B virus, HepDES19, 120 h, read-out: IC50 (HBeAg level, HepDES19 primary screen assay), HepDES19 cells, 5 days compound incubation, HBeAg ELISA.

pIC50: −log10 of the molar value. Read-outs that look alike come from different tables or passages of the source.

In the case of `O=C(O)[C@@H]1CC[C@@H](Oc2cc(Br)ccc2-c2cc(=O)c3cccc(Cl)c3o2)C1` (relative stereo) [Example B028-B, Trans-3-[5-bromo-2-(8-chloro-4-oxo-chromen-2-yl)phenoxy]cyclopentanecarboxylic acid], the pIC50 in data set [1] (setting [3]) was 6.67. In addition, the “Clearance of Human microsome” value in data set [2] turned out to be 0.599 L/h/kg. As to `O=C(O)C1CCCN1C(=O)COc1cc(C(F)(F)F)ccc1-c1cc(=O)c2cccc(Cl)c2o1` (stereo in doubt) [Example A082, (2S)-1-[2-[2-(8-chloro-4-oxo-chromen-2-yl)-5-(trifluoromethyl)phenoxy]acetyl]pyrrolidine-2-carboxylic acid], the pIC50 in data set [1] (read-out: IC50 (HBeAg level, HepDES19 primary screen assay), HepDES19 cells, 5 days compound incubation, HBeAg ELISA) was 5.92. Besides, in data set [2], the “Clearance of Human microsome” value came to 0.369 L/h/kg. With `O=C(O)C1CC(OCCOc2ccccc2-c2cc(=O)c3cccc(Br)c3o2)C1` (stereo in doubt) [Example C046-A, Cis-3-[2-[2-(8-bromo-4-oxo-chromen-2-yl)phenoxy]ethoxy]cyclobutanecarboxylic acid], the pIC50 in data set [1] (setting [3]) is 6.72. Further, in data set [2], the “Clearance of Human microsome” value was 0.369 L/h/kg. Consider `O=C(O)CCOc1cc(C(F)(F)F)ccc1-c1cc(=O)c2cc(F)cc(Cl)c2o1` [Example A003, 3-[2-(8-chloro-6-fluoro-4-oxo-chromen-2-yl)-5-(trifluoromethyl)phenoxy]propanoic acid], for which, in data set [1] (setting [3]), the pIC50 was 6.44. Besides, in data set [2], the “Clearance of Human microsome” value came out at 0.369 L/h/kg. For `COc1cc(-c2cc(=O)c3cccc(Cl)c3o2)c(OCCC(=O)O)cc1C` [Example A015, 3-[2-(8-chloro-4-oxo-chromen-2-yl)-4-methoxy-5-methyl-phenoxy]propanoic acid], in that order: 4.95 and 0.369 L/h/kg. Regarding `Cc1cc(Br)c(OCCC(=O)O)c(-c2cc(=O)c3cccc(Cl)c3o2)c1` [Example A018, 3-[2-bromo-6-(8-chloro-4-oxo-chromen-2-yl)-4-methyl-phenoxy]propanoic acid], the pIC50 in data set [1] (setting [3]) was 5.48. Moreover, the “Clearance of Human microsome” value in data set [2] amounted to 0.369 L/h/kg. For `Cc1cc(OCCC(=O)O)c(-c2cc(=O)c3cccc(Cl)c3o2)cc1OC(F)(F)F` [Example A019, 3-[2-(8-chloro-4-oxo-chromen-2-yl)-5-methyl-4-(trifluoromethoxy)phenoxy]propanoic acid], in that order: 5.53 and 0.369 L/h/kg. The corresponding values for `Cc1cc(F)c(-c2cc(=O)c3cccc(Cl)c3o2)c(OCCC(=O)O)c1` [Example A021, 3-[2-(8-chloro-4-oxo-chromen-2-yl)-3-fluoro-5-methyl-phenoxy]propanoic acid] are 5.39 and 0.369 L/h/kg.

For the compound `O=C(O)CCOc1cc(C(F)(F)F)ccc1-c1cc(=O)c2ccc(F)c(Cl)c2o1` [Example A031, 3-[2-(8-chloro-7-fluoro-4-oxo-chromen-2-yl)-5-(trifluoromethyl)phenoxy]propanoic acid], the pIC50 in data set [1] (setting [3]) is 6.42. In data set [2], the “Clearance of Human microsome” value was 0.369 L/h/kg. `COc1ccc2c(=O)cc(-c3ccc(C(F)(F)F)cc3OCCC(=O)O)oc2c1Cl` [Example A032, 3-[2-(8-chloro-7-methoxy-4-oxo-chromen-2-yl)-5-(trifluoromethyl)phenoxy]propanoic acid]: the pIC50 in data set [1] (setting [3]) was 4.89. The “Clearance of Human microsome” value in data set [2] was determined as 0.369 L/h/kg.

On to `COc1cc(Cl)c2oc(-c3ccc(C(F)(F)F)cc3OCCC(=O)O)cc(=O)c2c1` [Example A033, 3-[2-(8-chloro-6-methoxy-4-oxo-chromen-2-yl)-5-(trifluoromethyl)phenoxy]propanoic acid], for which, in data set [1] (setting [3]), the pIC50 is 6.32. The “Clearance of Human microsome” value in data set [2] was 0.369 L/h/kg. As for `Cc1cc(-c2cc(=O)c3cccc(Cl)c3o2)c(OCC(=O)O)cc1Br` [Example A073, 2-[5-bromo-2-(8-chloro-4-oxo-chromen-2-yl)-4-methyl-phenoxy]acetic acid], the “Clearance of Human microsome” value in data set [2] was found to be 0.369 L/h/kg. Regarding `O=C1Cc2cc(OCCO[C@H]3C[C@@H](C(=O)O)C3)c(-c3cc(=O)c4cccc(Cl)c4o3)cc2N1` [Example C091, Cis-3-[2-[6-(8-chloro-4-oxo-chromen-2-yl)-2-oxo-indolin-5-yl]oxyethoxy]cyclobutanecarboxylic acid], the pIC50 in data set [1] (setting [3]) is 6.38. Take `CCOc1ccc(-c2cc(=O)c3ccc(C(F)(F)F)c(Cl)c3o2)c(OCCOC2CC(C(=O)O)C2)c1` (stereo not shown) [Example C097, 3-[2-[2-[8-chloro-4-oxo-7-(trifluoromethyl)chromen-2-yl]-5-ethoxy-phenoxy]ethoxy]cyclobutanecarboxylic acid]: the negative logarithm of the IC50 (pIC50) in data set [1] (setting [3]) was 5.88. `O=C(O)C1CCC(OCCOc2cc(Br)ccc2-c2cc(=O)c3cccc(Cl)c3o2)C1` (stereo not shown) [Example C106, 3-[2-[5-bromo-2-(8-chloro-4-oxo-chromen-2-yl)phenoxy]ethoxy]cyclopentanecarboxylic acid]: in data set [1] (setting [3]), the pIC50 is 5.68. In the case of `O=C(O)c1ccc(OCCOc2cc(Br)ccc2-c2cc(=O)c3cccc(Cl)c3o2)cc1` [Example C107, 4-[2-[5-bromo-2-(8-chloro-4-oxo-chromen-2-yl)phenoxy]ethoxy]benzoic acid], in data set [1] (setting [3]), the pIC50 was 6.00. On to `O=C(O)c1cccc(OCCOc2cc(Br)ccc2-c2cc(=O)c3cccc(Cl)c3o2)c1` [Example C108, 3-[2-[5-bromo-2-(8-chloro-4-oxo-chromen-2-yl)phenoxy]ethoxy]benzoic acid], for which the pIC50 in data set [1] (setting [3]) was 5.90. The same measure, in the same setting: with `CC(C)(OCCCOc1cc(C(F)(F)F)ccc1-c1cc(=O)c2cccc(Cl)c2o1)C(=O)O` [Example C109, 2-[3-[2-(8-chloro-4-oxo-chromen-2-yl)-5-(trifluoromethyl)phenoxy]propoxy]-2-methyl-propanoic acid] the figure was 6.00; with `CS(=O)(=O)NC(=O)[C@H]1C[C@H](OCCOc2cc(Br)ccc2-c2cc(=O)c3cccc(Cl)c3o2)C1` [Example C123, Trans-3-[2-[5-bromo-2-(8-chloro-4-oxo-chromen-2-yl)phenoxy]ethoxy]-N-methylsulfonyl-cyclobutanecarboxamide], 5.19. For the compound `CS(=O)(=O)NC(=O)C1CCC(OCCCOc2cc(C(F)(F)F)ccc2-c2cc(=O)c3cccc(Cl)c3o2)C1` (stereo not shown) [Example C124, 3-[3-[2-(8-chloro-4-oxo-chromen-2-yl)-5-(trifluoromethyl)phenoxy]propoxy]-N-methylsulfonyl-cyclopentanecarboxamide], the pIC50 in data set [1] (setting [3]) is 5.55.

Turning to `O=C(COCCOc1cc(Br)ccc1-c1cc(=O)c2cccc(Cl)c2o1)N1CCC(O)C1` (stereo not shown) [Example C126, 2-[4-bromo-2-[2-[2-(3-hydroxypyrrolidin-1-yl)-2-oxo-ethoxy]ethoxy]phenyl]-8-chloro-chromen-4-one], the negative logarithm of the IC50 (pIC50) in data set [1] (setting [3]) is 5.36.

Take `O=c1cc(-c2ccccc2O)oc2cc(O)ccc12` [Example F-1, 7-hydroxy-2-(2-hydroxyphenyl)chromen-4-one, reference compound]: the pIC50 in data set [1] (setting [3]) is less than 4.30. For the compound `COc1ccc2oc(-c3ccccc3OC)cc(=O)c2c1` [Example F-2, 6-methoxy-2-(2-methoxyphenyl)chromen-4-one, reference compound], the pIC50 in data set [1] (setting [3]) was less than 4.30.
